Literature values in patent US6417191B1, “Synergistic combinations of zidovudine, 1592U89 and 3TC” (GlaxoSmithKline, priority 1995, dated 2002).
Like-named read-outs stand apart in the source and are kept apart here.

Columns and labels:
[1] = plasma, patients, therapeutic doses of each drug as a single agent

| Compound | activity against HIV (HIV) | Peak Level (in vivo) [µM] | Trough Level (in vivo) [µM] | Peak Level [1] [µM] | Trough Level [1] [µM] |
| --- | --- | --- | --- | --- | --- |
| Nc1ccn(C2CSC(CO)O2)c(=O)n1 (racemic) [BCH-189, 4-amino-1-(2-hydroxymethyl-1,3-oxathiolan-5-yl)-(1H)-pyrimidin-2-one] | anti-HIV activity | – | – | – | – |
| Nc1nc(NC2CC2)c2ncn([C@H]3C=C[C@@H](CO)C3)c2n1 (relative stereo) [1592U89, (1S,4R)-cis-4-[2-amino-6-(cyclopropylamino)-9H-purin-9-yl]-2-cyclopentene-1-methanol] | potent activity against HIV | 3.5 | 0.1 | – | – |
| Nc1nc(=O)n([C@@H]2CS[C@H](CO)O2)cc1F (relative stereo) [FTC, (2R,cis)-4-amino-5-fluoro-1-(2-hydroxymethyl-1,3-oxathiolan-5-yl)-(1H)-pyrimidin-2-one] | – | 10 | 0.5 | – | – |
| Nc1ccn([C@@H]2CS[C@H](CO)O2)c(=O)n1 (single isomer, unassigned) [3TC] | – | – | – | 9 | 0.7 |
| Cc1cn([C@H]2C[C@H](N=[N+]=[N-])[C@@H](CO)O2)c(=O)[nH]c1=O [zidovudine, 3′-azido-3′-deoxythymidine] | – | 5 | 0.4 | – | – |
